Test results as given in PMC12114297 (Molecules, 2025).

Experiments:
[1] = target: T1, BChE from equine serum (eqBuChE) (Equus caballus, UniProt P81908); experiment: biochemical; settings: average ± standard error (n = 3); for inhibition at 20 µM: read-out: BChE % of Inhibition (Conc. 20 μM), 20 μM
T1 construct: BChE from equine serum (BChE, EC 3.1.1.8); purchased Sigma-Aldrich (St. Louis, MO, USA); host or cells: equine serum
Description: The in vitro cholinesterase inhibitory activity of the synthesized hybrid molecules was evaluated using a modified Ellman’s assay, optimized for 96-well microplate application. AChE from Electrophorus electricus (AChE, EC 3.1.1.7), BChE from equine serum (BChE, EC 3.1.1.8), acetylthiocholine iodide (ATCh), butyrylthiocholine iodide (BTCh), and 5,5′-dithiobis(2-nitrobenzoic acid) were purchased from Sigma-Aldrich (St. Louis, MO, USA) and used without further purification.
Test compounds were initially dissolved in dimethylsulphoxide (DMSO) to yield 1 mM stock solutions and subsequently diluted with 0.1 M phosphate buffer (pH 8.0) to prepare working solutions.
For the assay, 20 µL of compound solution was added to 140 µL of 0.1 M phosphate buffer (pH 8.0) in each well, followed by 20 µL of enzyme solution (AChE or BuChE, 100 U/L). After incubation at room temperature for 10 min, the reaction was initiated by adding 10 µL of DTNB (0.01 M) and 10 µL of substrate (ATCh or BTCh, 0.015 M). […] The percentage inhibition of enzyme activity was calculated using the following equation:(1) % Inhibition=Absorbance of control−Apsorbance of sample/Absorbance of control×100 where the absorbance of the control represents the maximum enzyme activity (without inhibition), and the absorbance of the sample corresponds to the enzyme activity in the presence of the tested compound. Appropriate blanks were included to account for background absorbance and to correct for any intrinsic color of the tested compounds.
All experiments were performed in triplicate.

[2] = target: T2, AChE from Electrophorus electricus (eeAChE) (Electrophorus electricus, UniProt O42275); experiment: biochemical; settings: read-out: AChE % of Inhibition (Conc. 20 μM)
T2 construct: purchased Sigma-Aldrich (St. Louis, MO, USA)

[3] = system: Staphylococcus aureus ATCC 25923; experiment: Agar well diffusion, S. aureus; assay type: cell-based; settings: for Antibacterial activity in words: agar well diffusion, particularly S. aureus; for zone of inhibition at 1000 µg/mL: Staphylococcus aureus, ATCC25923, 60 µL of 1 mg/mL per well, ZOI including the well (6 mm), ± SD, n = 3, ciprofloxacin disk 5 μg, read-out: Staphylococcus aureus ATCC 25923 ZOI
Description: The antimicrobial potential of the synthesized coumarin–triazole–isatin hybrids was evaluated by the agar well diffusion method. The activity was tested against a variety of Gram-positive bacteria (Staphylococcus aureus ATCC 25923 and ATCC 902710, Staphylococcus epidermidis ATCC 12228, Streptococcus pyogenes ATCC 19615, Enterococcus faecalis ATCC 51299), Gram-negative bacteria (Escherichia coli ATCC 25922, Haemophilus influenzae ATCC 49766, Pseudomonas aeruginosa ATCC 27853, Salmonella typhi ATCC 14028, Neisseria meningitidis ATCC 13090, Neisseria gonorrhoeae ATCC 43069), and fungi (Candida albicans ATCC 60193 and ATCC 90028, Candida orientalis ATCC 6258). All microbial strains were obtained from Microbiologics (St.Cloud, MN, USA).
The test compounds were dissolved in DMSO to obtain stock solutions (1 mg/mL). Each compound (60 µL) was transferred into wells (6 mm in diameter) that were previously perforated into agar plates inoculated with microbial suspensions standardized to 0.5 McFarland for bacteria and 2 McFarland for Candida spp. DMSO was used as a negative control, while commercial antibiotic disks of novobiocin (5 μg), ampicillin (10 μg), and ciprofloxacin (5 μg) served as positive controls. Antimicrobial activity was assessed by measuring the diameter of zones of inhibition (ZOIs) in millimeters. All tests were conducted in triplicate.

T1 sequence (P81908 whole entry): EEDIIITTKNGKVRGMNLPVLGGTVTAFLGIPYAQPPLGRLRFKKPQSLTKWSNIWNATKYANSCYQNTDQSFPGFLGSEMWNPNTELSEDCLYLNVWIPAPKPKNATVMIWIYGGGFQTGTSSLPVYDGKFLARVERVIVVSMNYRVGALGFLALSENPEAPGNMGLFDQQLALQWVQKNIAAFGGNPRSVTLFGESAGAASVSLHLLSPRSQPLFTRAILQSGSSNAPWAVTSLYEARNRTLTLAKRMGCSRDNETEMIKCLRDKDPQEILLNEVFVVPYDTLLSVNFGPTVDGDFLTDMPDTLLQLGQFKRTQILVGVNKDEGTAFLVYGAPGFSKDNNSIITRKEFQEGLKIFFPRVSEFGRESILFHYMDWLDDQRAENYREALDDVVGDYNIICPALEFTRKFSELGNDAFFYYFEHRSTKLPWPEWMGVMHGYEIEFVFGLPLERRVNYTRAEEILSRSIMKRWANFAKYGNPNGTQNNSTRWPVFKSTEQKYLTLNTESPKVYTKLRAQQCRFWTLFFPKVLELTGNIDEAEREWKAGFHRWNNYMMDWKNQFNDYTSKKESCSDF
T2 sequence (O42275 24-633): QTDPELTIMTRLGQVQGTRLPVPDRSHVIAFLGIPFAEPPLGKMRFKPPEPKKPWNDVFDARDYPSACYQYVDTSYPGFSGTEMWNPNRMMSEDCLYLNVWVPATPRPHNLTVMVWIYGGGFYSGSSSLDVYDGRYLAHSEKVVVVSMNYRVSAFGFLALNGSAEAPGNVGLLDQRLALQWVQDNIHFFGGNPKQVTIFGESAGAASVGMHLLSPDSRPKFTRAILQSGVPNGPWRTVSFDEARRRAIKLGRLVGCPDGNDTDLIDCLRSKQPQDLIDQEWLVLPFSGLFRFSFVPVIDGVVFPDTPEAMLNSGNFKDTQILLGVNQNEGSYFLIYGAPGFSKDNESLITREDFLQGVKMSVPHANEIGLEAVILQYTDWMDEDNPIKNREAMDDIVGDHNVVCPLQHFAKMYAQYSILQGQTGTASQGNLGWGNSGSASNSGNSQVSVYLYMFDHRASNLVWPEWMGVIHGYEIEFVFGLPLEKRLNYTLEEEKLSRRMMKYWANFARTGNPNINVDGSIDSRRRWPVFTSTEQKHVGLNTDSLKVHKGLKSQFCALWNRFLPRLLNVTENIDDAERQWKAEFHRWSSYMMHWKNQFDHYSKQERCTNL

SMILES | inhibition at 20 µM [1] [%] | inhibition at 20 µM [2] [%] | Antibacterial activity in words [3] | BChE % of Inhibition (Conc. 20 μM) [1] [%] | zone of inhibition at 1000 µg/mL [3] [mm]
O=C1C(=O)N(Cc2cn(CCOc3cc(=O)oc4ccccc34)nn2)c2ccc(I)cc21 [Compound 6a5, 5-iodo-1-((1-(2-((2-oxo-2H-chromen-4-yl)oxy)ethyl)-1H-1,2,3-triazol-4-yl)methyl)indoline-2,3-dione] | 40.9 ± 6.26 | 3.17 ± 0.26 | largely inactive |  | 
O=C1C(=O)N(Cc2cn(CCOc3cc(=O)oc4ccccc34)nn2)c2ccc([N+](=O)[O-])cc21 [Compound 6a6, 5-nitro-1-((1-(2-((2-oxo-2H-chromen-4-yl)oxy)ethyl)-1H-1,2,3-triazol-4-yl)methyl)indoline-2,3-dione] | < 6 | 3.11 ± 0.44 | largely inactive | 4.89 ± 0.74 | 
Cc1ccc2c(c1)C(=O)C(=O)N2Cc1cn(CCOc2cc(=O)oc3ccccc23)nn1 [Compound 6a7, 5-methyl-1-((1-(2-((2-oxo-2H-chromen-4-yl)oxy)ethyl)-1H-1,2,3-triazol-4-yl)methyl)indoline-2,3-dione] |  | 22.8 ± 3.66 | largely inactive | 2.91 ± 0.15 | 
O=C1C(=O)N(Cc2cn(CCCOc3cc(=O)oc4ccccc34)nn2)c2ccc([N+](=O)[O-])cc21 [Compound 6b6, 5-nitro-1-((1-(3-((2-oxo-2H-chromen-4-yl)oxy)propyl)-1H-1,2,3-triazol-4-yl)methyl)indoline-2,3-dione] | < 6 | 17.9 ± 1.91 | largely inactive | 5.89 ± 1.91 | 
Cc1ccc2c(c1)C(=O)C(=O)N2Cc1cn(CCCOc2cc(=O)oc3ccccc23)nn1 [Compound 6b7, 5-methyl-1-((1-(3-((2-oxo-2H-chromen-4-yl)oxy)propyl)-1H-1,2,3-triazol-4-yl)methyl)indoline-2,3-dione] |  | 24.4 ± 1.27 | largely inactive | 4.88 ± 0.27 | 
O=C1C(=O)N(Cc2cn(CCCCOc3cc(=O)oc4ccccc34)nn2)c2ccc(Cl)cc21 [Compound 6c3, 5-chloro-1-((1-(4-((2-oxo-2H-chromen-4-yl)oxy)butyl)-1H-1,2,3-triazol-4-yl)methyl)indoline-2,3-dione] | 5.19 ± 1.14 | 44.2 ± 3.14 | only weak antibacterial activity |  | 10.7 ± 3.06
O=C1C(=O)N(Cc2cn(CCCCOc3cc(=O)oc4ccccc34)nn2)c2ccc(Br)cc21 [Compound 6c4, 5-bromo-1-((1-(4-((2-oxo-2H-chromen-4-yl)oxy)butyl)-1H-1,2,3-triazol-4-yl)methyl)indoline-2,3-dione] | 27.1 ± 2.19 | 9.84 ± 1.19 | only weak antibacterial activity |  | 12 to 20
O=C1C(=O)N(Cc2cn(CCCCOc3cc(=O)oc4ccccc34)nn2)c2ccc(I)cc21 [Compound 6c5, 5-iodo-1-((1-(4-((2-oxo-2H-chromen-4-yl)oxy)butyl)-1H-1,2,3-triazol-4-yl)methyl)indoline-2,3-dione] | 22.9 ± 1.64 | 11.2 ± 1.64 | largely inactive |  | 
O=C1C(=O)N(Cc2cn(CCCCOc3cc(=O)oc4ccccc34)nn2)c2ccc([N+](=O)[O-])cc21 [Compound 6c6, 5-nitro-1-((1-(4-((2-oxo-2H-chromen-4-yl)oxy)butyl)-1H-1,2,3-triazol-4-yl)methyl)indoline-2,3-dione] | < 6 | 19 ± 1.96 | largely inactive | 4.15 ± 0.54 | 
COc1cc2c(cc1OC)C(=O)C(CC1CCN(Cc3ccccc3)CC1)C2 (stereo not drawn) [Donepezil, donepezil, reference compound] | 74.2 ± 6.17 |  |  |  | 
